“And” between values parts separate entries of the source, which are not always exact repeats. Equal entries are not always repeated. Toxic doses and inconclusive results are not listed. Rule for the calls: active = survival T/C of 150% or more; inactive = T/C below 125% in these data.
Test system: CD2F1 mice, L1210 leukemia ip, survival T/C
Experiment: NCI In Vivo Anticancer Drug Screen. Data for tumor model L1210 Leukemia (intraperitoneal) in CD2F1 (CDF1) mice
Details: higher = longer survival
Summary of the method: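 Activity against a transplanted murine tumor was judged by comparing the compound group with a vehicle group. The outcome in the treated animals was divided by that in the controls.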

[1] = endpoint: mean survival time, dose: 100.0 mg/kg/injection, schedule: Q04DX002 (ip), vehicle: saline with Tween-80
[2] = endpoint: mean survival time, dose: 100.0 mg/kg/injection, schedule: Q04DX003 (ip), vehicle: other
[3] = endpoint: mean survival time, dose: 200.0 mg/kg/injection, schedule: Q04DX003 (ip), vehicle: other
[4] = endpoint: mean survival time, dose: 400.0 mg/kg/injection, schedule: Q04DX003 (ip), vehicle: other
[5] = endpoint: mean survival time, dose: 200.0 mg/kg/injection, schedule: Q04DX002 (ip), vehicle: saline with Tween-80
[6] = endpoint: mean survival time, dose: 25.0 mg/kg/injection, schedule: Q01DX009 (ip), vehicle: saline with Tween-80
[7] = endpoint: mean survival time, dose: 50.0 mg/kg/injection, schedule: Q01DX009 (ip), vehicle: saline with Tween-80
[8] = endpoint: mean survival time, dose: 100.0 mg/kg/injection, schedule: Q04DX003 (ip), vehicle: saline with Tween-80
[9] = endpoint: mean survival time, dose: 100.0 mg/kg/injection, schedule: Q01DX001 (ip), vehicle: saline with Tween-80
[10] = endpoint: mean survival time, dose: 200.0 mg/kg/injection, schedule: Q01DX001 (ip), vehicle: saline with Tween-80
[11] = endpoint: mean survival time, dose: 100.0 mg/kg/injection, schedule: Q01DX009 (ip), vehicle: saline with Tween-80

Measured: T/C

COc1cc2c(c(OC)c1O)-c1ccc(OC)c(=O)cc1[C@@H](NC(=O)C(F)(F)F)CC2
active: endpoint: median survival time, dose: 2.5 mg/kg/injection, schedule: Q01DX005 (ip), vehicle: Klucel (hydroxypropylcellulose) (HPC) 164 % of control | endpoint: median survival time, dose: 3.0 mg/kg/injection, schedule: Q01DX005 (ip), vehicle: Klucel (hydroxypropylcellulose) (HPC) 175 % of control | endpoint: median survival time, dose: 5.0 mg/kg/injection, schedule: Q01DX005 (ip), vehicle: Klucel (hydroxypropylcellulose) (HPC) 171 % of control | endpoint: median survival time, dose: 8.32 mg/kg/injection, schedule: Q01DX005 (ip), vehicle: Klucel (hydroxypropylcellulose) (HPC) 167 % of control | endpoint: median survival time, dose: 10.0 mg/kg/injection, schedule: Q01DX005 (ip), vehicle: Klucel (hydroxypropylcellulose) (HPC) 160 % of control | endpoint: median survival time, dose: 13.88 mg/kg/injection, schedule: Q01DX005 (ip), vehicle: Klucel (hydroxypropylcellulose) (HPC) 164 % of control
inactive: endpoint: median survival time, dose: 0.62 mg/kg/injection, schedule: Q01DX009 (ip), vehicle: Klucel (hydroxypropylcellulose) (HPC) 118 % of control | endpoint: median survival time, dose: 1.25 mg/kg/injection, schedule: Q01DX009 (ip), vehicle: Klucel (hydroxypropylcellulose) (HPC) 123 % of control

O=S(=O)(F)c1ccc(S)c(Cl)c1Cl
inactive: [1] 98 % of control

C1=CC2OC1c1ccccc12
inactive: [2] 93 % of control | [3] 98 % of control | [4] 93 % of control

O=C1NC(=O)C2C3CCC(O3)C12 (configuration not stated)
inactive: endpoint: mean survival time, dose: 25.0 mg/kg/injection, schedule: Q01DX009 (ip), vehicle: saline 102 % of control | endpoint: mean survival time, dose: 25.0 mg/kg/injection, schedule: Q04DX002 (ip), vehicle: saline with Tween-80 103 % of control and 97 % of control | endpoint: mean survival time, dose: 50.0 mg/kg/injection, schedule: Q01DX009 (ip), vehicle: saline 105 % of control | endpoint: mean survival time, dose: 50.0 mg/kg/injection, schedule: Q04DX002 (ip), vehicle: saline with Tween-80 98 % of control and 106 % of control | endpoint: mean survival time, dose: 100.0 mg/kg/injection, schedule: Q01DX009 (ip), vehicle: saline 102 % of control | [1] 103 % of control and 101 % of control | [5] 87 % of control

CN(C)CCCN1c2ccccc2C(C)(C)c2ccccc21
inactive: endpoint: mean survival time, dose: 12.5 mg/kg/injection, schedule: Q01DX009 (ip), vehicle: saline with Tween-80 105 % of control | [6] 103 % of control | [7] 97 % of control | [8] 86 % of control | endpoint: mean survival time, dose: 400.0 mg/kg/injection, schedule: Q04DX003 (ip), vehicle: saline with Tween-80 114 % of control

COc1ccccc1C=NC(C)(C)CO
inactive: endpoint: mean survival time, dose: 75.0 mg/kg/injection, schedule: Q01DX001 (ip), vehicle: other 102 % of control | endpoint: mean survival time, dose: 150.0 mg/kg/injection, schedule: Q01DX001 (ip), vehicle: other 97 % of control | endpoint: mean survival time, dose: 300.0 mg/kg/injection, schedule: Q01DX001 (ip), vehicle: other 97 % of control

CC(C)(C)S/C(=N/N=O)NN=O
inactive: [9] 100 % of control | [10] 102 % of control | endpoint: mean survival time, dose: 400.0 mg/kg/injection, schedule: Q01DX001 (ip), vehicle: saline with Tween-80 94 % of control

CC1=C(CCC(=O)O)C(=O)C(CCC(=O)O)C(C)(C)C1 (configuration not stated)
inactive: [1] 96 % of control | [5] 100 % of control | endpoint: mean survival time, dose: 400.0 mg/kg/injection, schedule: Q04DX002 (ip), vehicle: saline with Tween-80 100 % of control

O=C(CN1CCCCC1Cl)c1ccccc1 (configuration not stated)
inactive: [6] 102 % of control | [7] 96 % of control | [11] 102 % of control

C/C(=N/O)[c-]1[c-][c-][c-][c-]1.[Fe].[c-]1[c-][c-][cH-][c-]1
inactive: [7] 97 % of control | [9] 95 % of control | [11] 94 % of control | [10] 101 % of control

CN(C)C1c2cc(Br)ccc2-c2ccc(Br)cc21
inactive: endpoint: mean survival time, dose: 50.0 mg/kg/injection, schedule: Q01DX001 (ip), vehicle: carboxymethylcellulose (CMC) 101 % of control | endpoint: mean survival time, dose: 100.0 mg/kg/injection, schedule: Q01DX001 (ip), vehicle: carboxymethylcellulose (CMC) 101 % of control | endpoint: mean survival time, dose: 200.0 mg/kg/injection, schedule: Q01DX001 (ip), vehicle: carboxymethylcellulose (CMC) 104 % of control | endpoint: mean survival time, dose: 400.0 mg/kg/injection, schedule: Q01DX001 (ip), vehicle: carboxymethylcellulose (CMC) 104 % of control

Nc1ncc(C(=O)c2ccccc2)cc1[N+](=O)[O-]
inactive: [8] 96 % of control | endpoint: mean survival time, dose: 200.0 mg/kg/injection, schedule: Q04DX003 (ip), vehicle: saline with Tween-80 96 % of control

COC(=O)NC(/C=C/c1ccccc1)c1ccccc1 (configuration not stated)
inactive: [2] 94 % of control | [3] 97 % of control | [4] 97 % of control

C(=N\Nc1nc2ccccc2s1)/c1ccc2ccccc2n1
inactive: endpoint: mean survival time, dose: 100.0 mg/kg/injection, schedule: Q04DX003 (ip), vehicle: Klucel (hydroxypropylcellulose) (HPC) 95 % of control | endpoint: mean survival time, dose: 200.0 mg/kg/injection, schedule: Q04DX003 (ip), vehicle: Klucel (hydroxypropylcellulose) (HPC) 94 % of control | endpoint: mean survival time, dose: 400.0 mg/kg/injection, schedule: Q04DX003 (ip), vehicle: Klucel (hydroxypropylcellulose) (HPC) 94 % of control

— PubChem BioAssay AID256 (DTP/NCI, 2004)
